Data on two compounds can be found in article PMC5889410, “Design and Biological Evaluation of Antifouling Dihydrostilbene Oxime Hybrids” (Marine Biotechnology (New York, N.y.), 2018).

In brackets after ≈: the same amount, converted by molar mass. Bounds are passed on as bounds.

In series [1] the test system is Balanus improvisus cyprid larvae. Briefly: whole plant or invertebrate. In kind it is in vivo. The text has this: (§1) Cyprid larvae of B. improvisus were reared in a laboratory cultivating system at Tjärnö Marine Biological Laboratory, University of Gothenburg, Sweden, as previously described by Berntsson et al. ([2000]). Four pure, but non-axenic, marine microalgae (obtained from Algobank, Caen, France) and 10 marine bacterial strains were used (Table 1) as representative microfoulers. These strains represent fouling species encountered in both estuarine and marine environments (Moodie et al. [2017b]). The bacteria were grown at 26 °C in a marine medium, composed of 0.5% peptone (neutralized bacteriological peptone, Oxoid Ltd.) in filtered (Whatman 1001–270, pore size 11 μm) natural seawater. Microalgae were grown and maintained at 22 °C in F/2 medium.
Stock solutions of compounds in DMSO were serially diluted in untreated polystyrene Petri dishes containing 10 mL of filtered (0.2 μm) seawater, affording final concentrations ranging from 0.1 to 10 μg/mL. Freshly molted balanide cyprids (18–22) were added to each Petri dish and incubated at ambient temperature (20–25 °C) for 5 days. Cyprid metamorphosis was assessed using a dissecting microscope where the numbers of juvenile settled, free-swimming, and dead cyprids were noted. Initial compound screening was conducted at 5 μg/mL, and full IC50 determination was performed only on compounds displaying > 50% inhibition at that concentration. The IC50 was defined as the concentration preventing 50% of the cyprid settlement on the Petri dish surface. Each concentration was replicated four times (n = 4), and dishes containing 0.1% of DMSO were used as negative controls. The commercial AF agent Sea-nine™ was employed as a positive control.

The test system of series [2] is Vibrio aestuarianus. Briefly: Bacterial adhesion assay (crystal violet, OD 595 nm). It counts as cell-based. As to conditions: 48 h, read-out: MIC against the adhesion of marine bacteria, V.a.
Description: as §1
(§2) Bacterial strain adhesion and growth were determined according to the methods of Thabard et al. ([2011]). Bacterial suspensions (100-μL aliquots, 2 × 10^8 colony forming units/mL) were aseptically added to the compound containing microplate wells (10–0.01 μg/mL), and the plates were incubated for 48 h at 26 °C. Media only was used as a blank. Bacterial growth was monitored spectroscopically at 630 nm. The minimal inhibitory concentration (MIC) for bacterial growth was defined as the lowest concentration which results in a decrease in OD. After 48-h incubation time, the bacterial adhesion assay was conducted by emptying the wells and rinsing with sterile seawater (100 μL) to remove non-attached cells, and air-drying at room temperature. The residual bacterial biofilm was stained with aqueous crystal violet (100 μL, 0.3% v/v) and the OD measured at 595 nm (Sonak and Bhosle [1995]). […] If inhibition was observed, toxicity tests were conducted. The well contents were transferred into a flask of fresh media, and growth was measured after 5 days of additional incubation. The mode of action was deemed biostatic if an increase in OD was measured at 595 nm (Moodie et al. [2017a]).

In series [3] the test system is Vibrio carchariae. The series is described as above. In kind it is cell-based. As to conditions: Vibrio harveyi, 48 h, read-out: MIC against the adhesion of marine bacteria, V.c.
Description: as §1, §2

The test system of series [4] is Vibrio harveyi. The description is as above. It counts as cell-based. As to conditions: 48 h, read-out: MIC against the adhesion of marine bacteria, V.h.
Description: as §1, §2

Series [5] concerns Halomonas aquamarina. Described as above. It counts as cell-based. As to conditions: Vreelandella aquamarina, 48 h incubation, 10–0.01 μg/mL tested, read-out: MIC against the adhesion of marine bacteria, H.a.
Description: as §1, §2

The test system of another series is Porphyridium purpureum. Briefly: Microalgal growth assay (chlorophyll a). In kind it is cell-based. As to conditions: 120 h, 5 days incubation, 10–0.01 μg/mL tested, read-out: MIC against the growth (G) of microalgae, P. purpureum.
Description: as §1
(§3) Microplates containing the compounds in ranging concentrations (10–0.01 μg/mL) were prepared from MeOH stock solutions as previously described (Trepos et al. [2014]; Moodie et al. [2017a]). Microalgal stock solutions were prepared using the chlorophyll analysis methodology of Chambers et al. ([2011]). The pretreated microplate wells were treated with 100 μL of the algal stock solutions (0.1 mg chlorophyll a/mL). The plates were then incubated for 5 days at 20 °C under constant light exposure (140 μmol m^−2 s^−1). Both microalgal adhesion and growth inhibition were measured. Growth was determined by analysis of liberated chlorophyll a after centrifugation and methanol addition. Chlorophyll a was quantified fluorometrically. MIC value for algal growth was defined as the lowest concentration yielding a decrease in chlorophyll a content. Microalgal adhesion was determined in an analogous manner where the non-attached algal cells were removed prior to methanol addition (100 μL), releasing chlorophyll a from the remaining algal biofilms. The MIC for adhesion was defined as the lowest compound concentration causing a reduction in […]. Toxicity experiments were performed in an analogous manner to those described for the bacterial assays.

The test system of series [6] is Pleurochrysis roscoffensis. The series can be described thus: Microalgal growth assay (chlorophyll a). In kind it is cell-based. As to conditions: Chrysotila roscoffensis, 120 h, 5 days incubation, 10–0.01 μg/mL tested, read-out: MIC against the growth (G) of microalgae, P. roscoffensis.
Description: as §1, §3

The subject of another series is Cylindrotheca closterium. The series can be described thus: Microalgal growth assay (chlorophyll a). As to conditions: 120 h, 5 days incubation, 10–0.01 μg/mL tested, read-out: MIC against the growth (G) of microalgae, C. closterium. In kind it is cell-based.
Description: as §1, §3

For the next series, the system named is Halamphora coffeaeformis. Briefly: Microalgal growth assay (chlorophyll a). As to conditions: Halamphora coffeiformis, 120 h, 5 days incubation, 10–0.01 μg/mL tested, read-out: MIC against the growth (G) of microalgae, H. coffeaformis. In kind it is cell-based.
Description: as §1, §3

In the next series the test system is Vibrio natriegens. The series can be described thus: Bacterial growth assay (OD 630 nm). As to conditions: 48 h incubation, 10–0.01 μg/mL tested, read-out: MIC against the growth of marine bacteria, V.n. In kind it is cell-based.
Description: as §1, §2

The next series has as its system Shewanella putrefaciens. Briefly: Bacterial growth assay (OD 630 nm). In kind it is cell-based. As to conditions: 48 h incubation, 10–0.01 μg/mL tested, read-out: MIC against the growth of marine bacteria, S.p.
Description: as §1, §2

For series [7], the system named is Vibrio aestuarianus. The series can be described thus: Bacterial growth assay (OD 630 nm). In kind it is cell-based. As to conditions: 48 h incubation, 10–0.01 μg/mL tested, read-out: MIC against the growth of marine bacteria, V.a.
Description: as §1, §2

In series [8] the test system is Vibrio carchariae. The series can be described thus: Bacterial growth assay (OD 630 nm). In kind it is cell-based. As to conditions: Vibrio harveyi, 48 h incubation, 10–0.01 μg/mL tested, read-out: MIC against the growth of marine bacteria, V.c.
Description: as §1, §2

Series [9] concerns Vibrio harveyi. The series can be described thus: Bacterial growth assay (OD 630 nm). It counts as cell-based. As to conditions: 48 h incubation, 10–0.01 μg/mL tested, read-out: MIC against the growth of marine bacteria, V.h.
Description: as §1, §2

For a further series, the system named is Roseobacter litoralis. Briefly: Bacterial growth assay (OD 630 nm). It counts as cell-based. As to conditions: 48 h incubation, 10–0.01 μg/mL tested, read-out: MIC against the growth of marine bacteria, R.l.
Description: as §1, §2

Series [10] relates to Halomonas aquamarina. The series can be described thus: Bacterial growth assay (OD 630 nm). As to conditions: Vreelandella aquamarina, 48 h incubation, 10–0.01 μg/mL tested, read-out: MIC against the growth of marine bacteria, H.a. In kind it is cell-based.
Description: as §1, §2

Another series deals with Vibrio proteolyticus. Briefly: Bacterial growth assay (OD 630 nm). As to conditions: 48 h incubation, 10–0.01 μg/mL tested, read-out: MIC against the growth of marine bacteria, V.p. In kind it is cell-based.
Description: as §1, §2

For series [11], the system named is Pseudoalteromonas elyakovii. The series can be described thus: Bacterial growth assay (OD 630 nm). It counts as cell-based. As to conditions: 48 h incubation, 10–0.01 μg/mL tested, read-out: MIC against the growth of marine bacteria, P.e.
Description: as §1, §2

Another series deals with marine bacteria. The series can be described thus: Bacterial adhesion assay, whole panel of ten strains. As to conditions: tested up to 10 μg/mL, active = MIC of 10 μg/mL or below. It counts as cell-based, 10 marine bacterial strains.
Description: as §1, §2

The subject of series [12] is blue mussel phenoloxidase. The arrangement: method as in Bayer et al. [2011]. As to conditions: ref Bayer et al. [2011]; cited from earlier work.
The subject of series [13] is Balanus improvisus cyprid larvae. As to conditions: B. improvisus larvae settlement; ref Ortlepp et al. [2007]; cited from earlier work.

One may read the IC50 as the concentration at which inhibition is half-maximal. By MIC is commonly meant the least concentration at which growth counts as inhibited. `COc1cc(CC(=NO)c2ccc(OC)c(OC)c2)ccc1O` [Compound 14, 1-(3,4-dimethoxyphenyl)-1-hydroxyimino-2-(3’-methoxy-4’-hydroxyphenyl)-ethane]: the concentration for half-maximal inhibition (IC50) in series [1] (Amphibalanus improvisus, 120 h, read-out: IC50 (cyprid settlement inhibition)) amounted to 1 µg/mL (≈ 3.15 µM). For the same compound, the “Toxicity (%) (dead cyprids)” value in series [1] (Balanus improvisus, in vivo, 5 days, 5 μg/mL) came out at 4.8%. Also, the minimum inhibitory concentration (MIC) was 10 µg/mL (≈ 31.5 µM) in the series with Vibrio aestuarianus [2]; 10 µg/mL (≈ 31.5 µM) in the series on Vibrio carchariae [3]; 10 µg/mL (≈ 31.5 µM) with Vibrio harveyi [4]; 10 µg/mL (≈ 31.5 µM) with Halomonas aquamarina [5]; more than 10 µg/mL with Porphyridium purpureum; 10 µg/mL (≈ 31.5 µM) in series [6]. For the same compound, the minimal inhibitory concentration (MIC) in the series with Cylindrotheca closterium is 10 µg/mL (≈ 31.5 µM); in the series with Halamphora coffeaeformis it was 10 µg/mL (≈ 31.5 µM); with Vibrio natriegens, more than 10 µg/mL; in the series on Shewanella putrefaciens it was 10 µg/mL (≈ 31.5 µM); in the series with Vibrio aestuarianus [7], more than 10 µg/mL; in the series with Vibrio carchariae [8], more than 10 µg/mL. For the same compound, the minimum inhibitory concentration (MIC) (with Vibrio harveyi [9]; in the series on Roseobacter litoralis; with Halomonas aquamarina [10]; in the series on Vibrio proteolyticus; in [11]) was more than 10 µg/mL throughout. The “MIC / activity against the adhesion of all bacteria tested” value in the series on marine bacteria is reported as “displayed inhibitory activities”.

On to `O=C(NCCc1ccc(O)cc1)C(Cc1ccc(O)cc1)=NO` [Compound 4, debromohemibastadin-1], for which, in [12], the “inhibition of phenoloxidase, in words” value was “inhibit”. In addition, in series [13], the “minimum significant dose to inhibit settlement” value is 100 µM.
